Laboratory results: patent US20240424119A1, “USE OF POLYPEPTIDE IN RESISTANCE TO ADDICTION AND RELAPSE THEREOF, AND COMPLEX AND POLYPEPTIDE” (SHENZHEN CHENYANG BIOLOGICAL TECHNOLOGY CO., LTD, priority 2021, published 2024)
No end group written: not given here.

How the values were obtained:
[1] = tested on: alcohol-induced behavioral sensitization in mice; assay: Effects of different polypeptides on alcohol-induced behavioral sensitization in mice; format: in vivo; details: 3 nmol/g i.p. 1 hour before alcohol (2.2 g/kg) on third day after training; TAT fusion peptides; n=10
Description: (§1) Then, the C-terminal of Pep1 to Pep5 was fused to the N-terminal of TAT respectively to obtain fusion peptides which could penetrate the blood-brain barrier.
In order to verify that the polypeptide of the invention is also effective against alcohol-induced addiction, the following tests were carried out:
The training period lasted for 10 days, during which mice were administered alcohol (2.2 g/kg) or normal saline every other day and then immediately tested for 15 minutes. On the third day after training, 1 hour before alcohol administration, different polypeptides of Example 9 (3 nmol/g) were administered to mice via intraperitoneal injection (10 ml/kg) for drug induction, and a testing was carried out, and the results were shown in FIG. 19.

[2] = tested on: morphine-induced CPP in mice; assay: Effects of different polypeptides on morphine-induced CPP in mice; format: in vivo; details: 3 nmol/g i.p. on Day 10, recorded on the second day after administration; TAT fusion peptides; n=12
Description: The CPP equipment used in the experiment has two equal-volume chambers (15 cm×15 cm×37 cm) with a movable door in the middle. Mice could freely shuttle between chambers during testing, or were limited to one side of the chamber during training. The interior of one chamber is black and the bottom is striped, while the other chamber is white and the bottom is latticed. All behavioral tests, including distance and time of activity, were recorded by a camera and calculated using the SMART Video Tracking System (Version 2.5; Panlab Technology for Biosearch, Spain).
On Day 1, mice were allowed to explore two chambers freely for 15 min without any treatment (before testing). On Day 2, 4, 6 and 8, control group (saline group) and model group (morphine group) received saline (10 mL/kg) and morphine (10 mg/kg), respectively. TAT group (3 nmol/g) and TAT-D2R-KT group (3 nmol/g) were injected (intraperitoneally, 10 ml/kg body weight) 1 hour before morphine injection. After injection, all mice were trained in the white chamber for 40 min. On Day 3, 5, 7 and 9, all mice were given normal saline, and then immediately placed in the black chamber for 40 min; on Day 10, after all mice explored freely for 15 min, the test ended, and the CPP scores (moving duration of mice) were shown in FIG. 6.
as §1
Mice were given morphine (1 mg/kg) or normal saline for 8 days, and different polypeptides (3 nmol/g) of Example 9 were administered to mice via intraperitoneal injection (10 ml/kg) on Day 10; the expression of morphine-induced CPP was recorded according to the CPP experimental method in Example 5 on the second day after administration, and the results were shown in FIG. 17.

[3] = tested on: cocaine-induced behavioral sensitization in mice; assay: Effects of different polypeptides on cocaine-induced behavioral sensitization in mice; format: in vivo; details: 3 nmol/g i.p. 1 hour before cocaine (15 mg/kg) on sixth day of pause; TAT fusion peptides; n=10
Description: as §1
In order to verify that the polypeptide of the invention is also effective against cocaine-induced addiction, the following tests were carried out:
Mice were given cocaine (15 mg/kg) or normal saline and then tested for 30 minutes, repeated for 5 days, and followed by a 5-day pause of administration. On the sixth day of the pause, 1 hour before cocaine administration, different polypeptides of Example 9 (3 nmol/g) were administered to mice via intraperitoneal injection (10 ml/kg) for drug induction, and a testing was carried out, and the results were shown in FIG. 18.

D2R/NR2B complex = target: T1, D2R/NR2B complex (Mus musculus, UniProt Q01097); assay: Co-immunoprecipitation of hippocampus tissue from polypeptide-treated CPP mice and BS mice; format: in vivo
T1 construct: Co-immunoprecipitation was performed using a protein sample (100-500 μg protein) from hippocampus tissue; from tissue; host or cells: hippocampus tissue of CPP and BS mice treated in vivo
Description: Co-immunoprecipitation was performed using a protein sample (100-500 μg protein) from hippocampus tissue. NR2B and D1R or D2R were precipitated using an anti-NR2B and D2R, D2R or NR2B and 25 μl protein A/G+agarose bead slurry (SantaCruz Biotechnology, sc-2001), respectively.
The protein was then isolated on 8% SDS-PAGE gel and detected with a mouse antibody against NR2B and D2R. HRP-coupled secondary antibody and enhanced chemiluminescence method were used to detect the protein. Density analysis of bands was performed using image laboratory software.
In order to verify the effect of KT polypeptide of D2R on the D2R/NR2B complex in vivo, the C terminal of the region (K211-T225) was fused to the N terminal of transduction domain of HIV-1-type Tat protein (as set forth in SEQ ID NO: 6, hereinafter referred to as TAT) to obtain a fusion protein which can permeate blood-brain barrier, named TAT-D2R-KT.
CPP mice and BS mice were treated with TAT-D2R-KT respectively, and mice treated with TAT only were used as control (all treated by single intraperitoneal administration, 10 ml/kg body weight, medicament concentration 3 nmol/g). After 1 hour of treatment, analysis was performed according to the co-immunoprecipitation method in Example 1, and the results were shown in FIG. 4.

NR2B = target: T2, NR2B (Mus musculus, UniProt Q01097); assay: GST-pulldown of NR2B from hippocampus extract by GST fusion proteins of D2R regions; format: binding; details: 500 μg hippocampus extract, overnight, 4° C.
T2 construct: from tissue; host or cells: hippocampus extract
Description: In order to search for the physical interaction site between D2R and NR2B, cDNA fragments of the CT region of D2R (T428-C443) and the third intracellular loop (IL3) region of D2R (K211-Q373) were first obtained via the D2R full-length cDNA clone (Genbank Accession No.: M29066.1). These fragments were subcloned to the BamH1/EcoR1 or BamH1/Xho1 site of a pGEX-4T-3 plasmid (YouBio, Item No: VT1255). Initiation methionine residue and termination codon were added as appropriate. All constructs were resequenced to confirm that splice fusion was achieved appropriately. The GST fusion protein containing the IL3 region of D2R (GST-D2R-IL3) and the GST fusion protein containing the CT region of D2R (GST-D2R-CT) were obtained by using E.coli BL21 viable cells (AlpalifeBio, Item No: KTSM104L) for expression and purifying them from bacterial lysate, wherein the specific positions of the coding sequences of IL3 region and CT region on D2R were shown in FIG. 2.
500 μg of dissolved hippocampus extract was diluted with 1×PBS/0.1% Triton X-100 and incubated overnight with 20 μl protein GST resin (TransGen Biotech, Item No: N21220, Beijing, China) saturated with GST protein only or with the prepared 15 µg GST fusion protein at 4° C. Beads were washed 1-8 times with 1×PBS/0.1% Triton X-100. Binding proteins were eluted with 2×loading buffer, separated by SDS-PAGE, and subjected to Western blot with respective antibodies thereof, and the results were shown in A of FIG. 3.
Next, in order to further explore the interaction sequence/site between D2R and NR2B, the IL3 region was divided into KVC (K211-V270) region of D2R, ES (E271-S321) region of D2R and PQ (P322-Q373) region of D2R.
According to the method in the present Example, a pulldown analysis was performed using a GST fusion protein containing the KVC region of D2R (GST-D2R-KVC), a GST fusion protein containing the ES region of D2R (GST-D2R-ES), and a GST fusion protein containing the PQ region of D2R (GST-D2R-PQ), and the results of Western blot were shown in B of FIG. 3.
Further, the KVC region was divided into KT (K211-T225) region of D2R, KL (K226-L240) region of D2R, KV (K241-V255) region of D2R, and IV (1256-V270) region of D2R.
According to the method in the present Example, a pulldown analysis was performed using a GST fusion protein containing the KT region of D2R (GST-D2R-KT), the GST fusion protein containing the KL region of D2R (GST-D2R-KL), a GST fusion protein containing the KV region of D2R (GST-D2R-KV), and a GST fusion protein containing the IV region of D2R (GST-D2R-IV), and the results of Western blot were shown in C of FIG. 3.

binding of D2R to NR2B = binding of D2R to NR2B (Homo sapiens, UniProt Q13224); details: Liu et al., Neuron 52, 897-909, FIGS. 3M and 3N; cited from earlier work
binding of D2R to NR2B, sequence (Q13224 27-1484): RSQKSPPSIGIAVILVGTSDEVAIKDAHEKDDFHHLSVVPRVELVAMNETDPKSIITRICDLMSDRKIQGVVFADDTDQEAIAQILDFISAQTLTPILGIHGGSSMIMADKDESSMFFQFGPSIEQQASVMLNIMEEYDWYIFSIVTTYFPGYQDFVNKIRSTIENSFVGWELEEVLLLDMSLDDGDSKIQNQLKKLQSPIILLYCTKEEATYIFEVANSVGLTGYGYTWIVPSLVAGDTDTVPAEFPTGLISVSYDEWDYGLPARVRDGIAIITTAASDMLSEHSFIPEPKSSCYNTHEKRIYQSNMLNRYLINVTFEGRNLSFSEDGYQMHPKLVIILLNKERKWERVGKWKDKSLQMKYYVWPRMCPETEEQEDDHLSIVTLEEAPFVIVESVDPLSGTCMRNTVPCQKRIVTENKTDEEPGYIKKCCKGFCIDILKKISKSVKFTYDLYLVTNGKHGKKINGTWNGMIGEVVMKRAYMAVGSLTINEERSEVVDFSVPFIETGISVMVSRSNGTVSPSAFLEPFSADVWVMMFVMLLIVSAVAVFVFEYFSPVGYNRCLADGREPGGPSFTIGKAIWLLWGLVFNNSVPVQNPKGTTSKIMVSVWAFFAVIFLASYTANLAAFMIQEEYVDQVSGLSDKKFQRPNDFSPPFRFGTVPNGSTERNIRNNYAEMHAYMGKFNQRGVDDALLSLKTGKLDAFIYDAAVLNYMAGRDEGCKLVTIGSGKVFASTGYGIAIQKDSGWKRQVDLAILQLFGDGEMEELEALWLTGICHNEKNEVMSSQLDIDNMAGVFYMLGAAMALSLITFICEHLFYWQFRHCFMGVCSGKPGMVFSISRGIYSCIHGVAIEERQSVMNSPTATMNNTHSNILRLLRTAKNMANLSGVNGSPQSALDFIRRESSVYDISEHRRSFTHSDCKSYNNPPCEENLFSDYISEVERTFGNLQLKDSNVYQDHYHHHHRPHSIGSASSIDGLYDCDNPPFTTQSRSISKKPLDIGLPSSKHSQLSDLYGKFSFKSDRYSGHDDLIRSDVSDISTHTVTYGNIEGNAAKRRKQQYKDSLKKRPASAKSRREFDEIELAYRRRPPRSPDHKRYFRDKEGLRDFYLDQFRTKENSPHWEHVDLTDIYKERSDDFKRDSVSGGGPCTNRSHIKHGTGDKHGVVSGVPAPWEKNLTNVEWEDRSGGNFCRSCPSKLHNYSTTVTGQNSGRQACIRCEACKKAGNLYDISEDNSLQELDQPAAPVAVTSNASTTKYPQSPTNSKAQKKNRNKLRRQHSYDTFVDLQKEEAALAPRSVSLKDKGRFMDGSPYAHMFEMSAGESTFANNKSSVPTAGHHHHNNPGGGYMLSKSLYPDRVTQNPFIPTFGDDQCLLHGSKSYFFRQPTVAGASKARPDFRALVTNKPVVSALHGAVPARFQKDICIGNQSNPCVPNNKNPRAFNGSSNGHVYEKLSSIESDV

T2 sequence (Q01097 27-1482, other chains not shown): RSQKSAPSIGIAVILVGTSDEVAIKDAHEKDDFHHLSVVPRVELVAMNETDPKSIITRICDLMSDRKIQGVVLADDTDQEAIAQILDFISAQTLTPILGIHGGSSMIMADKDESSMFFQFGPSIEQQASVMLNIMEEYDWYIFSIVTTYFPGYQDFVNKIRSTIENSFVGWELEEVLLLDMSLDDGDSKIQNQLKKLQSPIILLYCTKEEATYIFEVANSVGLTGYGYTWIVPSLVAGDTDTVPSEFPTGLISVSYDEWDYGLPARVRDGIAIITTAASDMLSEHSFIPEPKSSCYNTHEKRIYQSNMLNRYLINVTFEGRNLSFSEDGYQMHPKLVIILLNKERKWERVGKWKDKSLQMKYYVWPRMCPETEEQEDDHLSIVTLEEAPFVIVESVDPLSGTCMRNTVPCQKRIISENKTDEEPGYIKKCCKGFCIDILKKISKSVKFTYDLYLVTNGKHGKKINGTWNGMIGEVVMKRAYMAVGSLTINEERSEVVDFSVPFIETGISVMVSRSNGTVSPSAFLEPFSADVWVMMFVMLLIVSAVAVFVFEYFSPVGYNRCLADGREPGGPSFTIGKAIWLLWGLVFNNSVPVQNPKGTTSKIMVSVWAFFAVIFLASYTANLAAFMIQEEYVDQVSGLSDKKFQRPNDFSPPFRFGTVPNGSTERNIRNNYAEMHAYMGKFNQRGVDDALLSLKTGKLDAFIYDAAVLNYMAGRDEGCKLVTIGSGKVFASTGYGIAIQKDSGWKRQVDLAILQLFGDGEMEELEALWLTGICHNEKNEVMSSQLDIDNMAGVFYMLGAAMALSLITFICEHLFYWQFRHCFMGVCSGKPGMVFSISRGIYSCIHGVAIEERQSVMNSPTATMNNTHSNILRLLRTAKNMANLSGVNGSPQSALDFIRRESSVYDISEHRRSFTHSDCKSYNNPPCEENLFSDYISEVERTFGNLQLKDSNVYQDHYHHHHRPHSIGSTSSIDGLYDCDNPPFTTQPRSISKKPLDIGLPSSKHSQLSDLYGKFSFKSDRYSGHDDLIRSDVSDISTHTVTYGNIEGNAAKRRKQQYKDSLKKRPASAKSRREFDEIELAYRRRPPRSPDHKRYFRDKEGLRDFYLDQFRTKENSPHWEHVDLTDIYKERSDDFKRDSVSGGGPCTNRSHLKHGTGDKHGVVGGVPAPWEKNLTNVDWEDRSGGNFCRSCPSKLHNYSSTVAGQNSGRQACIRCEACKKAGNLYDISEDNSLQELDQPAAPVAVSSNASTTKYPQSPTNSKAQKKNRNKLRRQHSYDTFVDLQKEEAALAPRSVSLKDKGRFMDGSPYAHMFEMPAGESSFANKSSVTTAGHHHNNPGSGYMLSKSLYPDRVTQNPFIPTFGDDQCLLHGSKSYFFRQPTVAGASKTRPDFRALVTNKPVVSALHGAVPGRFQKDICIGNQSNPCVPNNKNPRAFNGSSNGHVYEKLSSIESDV
T1 sequence (Q01097 27-1482, other chains not shown): as above

## KIYIVLGGGRKRVNT [Pep4, variant with the mid-segment RRR mutated to GGG; tested fused to TAT]
[1]
  expression of sensitization behavior (alcohol-induced): failed to inhibit the expression of sensitization behavior
[2]
  activity distance of morphine-CPP mice: failed to significantly reduce the activity distance
[3]
  expression of sensitization behavior (cocaine-induced): failed to inhibit the expression of sensitization behavior

## KIYIVLRRRGGGVNT [Pep5, variant with the mid-segment RKR mutated to GGG; tested fused to TAT]
[1]
  expression of sensitization behavior (alcohol-induced): failed to inhibit the expression of sensitization behavior
[2]
  activity distance of morphine-CPP mice: failed to significantly reduce the activity distance
[3]
  expression of sensitization behavior (cocaine-induced): failed to inhibit the expression of sensitization behavior

## KIYIVLRRRRKRV [Pep3, variant of KT polypeptide, C-terminal truncated; tested fused to TAT]
[1]
  expression of sensitization behavior (alcohol-induced): significantly inhibited the expression of sensitization behavior
[2]
  activity distance of morphine-CPP mice: significantly reduced the activity distance
[3]
  expression of sensitization behavior (cocaine-induced): significantly inhibited the expression of sensitization behavior

## KIYIVLRRRRKRVNT [Pep1, KT polypeptide, K211-T225 of the IL3 region of D2R; tested in vivo fused to TAT]
[1]
  expression of sensitization behavior (alcohol-induced): significantly inhibited the expression of sensitization behavior
[2]
  activity distance of morphine-CPP mice: significantly reduced the activity distance
[3]
  expression of sensitization behavior (cocaine-induced): significantly inhibited the expression of sensitization behavior
D2R/NR2B complex; CPP mice and BS mice, single intraperitoneal administration 3 nmol/g, 1 hour after treatment, TAT only as control
  D2R/NR2B interaction in hippocampus tissue (co-immunoprecipitation): competitively disrupted the D2R/NR2B interaction
D2R/NR2B complex; summary statement of the inventors' finding, no conditions given
  interaction between D2R and NR2B: successfully reduced the interaction between D2R and NR2B

## KL region of D2R: GST fusion protein containing the KL region of D2R (K226-L240) (KRSSRAFRAHLRAPL; also: GST fusion; UniProt P14416 226-240, looked up, fragment)
NR2B
  precipitation of NR2B by GST fusion protein (pulldown, Western blot): could not be precipitated

## KT region of D2R: GST fusion protein containing the KT region of D2R (K211-T225) (KIYIVLRRRRKRVNT; also: GST fusion)
NR2B
  precipitation of NR2B by GST fusion protein (pulldown, Western blot): precipitated with affinity

## KVC region of D2R: GST fusion protein containing the KVC region of D2R (K211-V270) (KIYIVLRRRRKRVNTKRSSRAFRAHLRAPLKGNCTHPEDMKLCTVIMKSNGSFPVNRRRV; cysteine pairing not given here; also: GST fusion)
NR2B
  precipitation of NR2B by GST fusion protein (pulldown, Western blot): precipitated with affinity

## P4: Liu et al. polypeptide of IL3 from D2R (1210-K226) lacking the motif TKRSSRAFRA (IKIYIVLRRRRKRVNTK; UniProt P14416 210-226, looked up, fragment) [Pep P4]
Binding of D2R to NR2B
  prevention of the binding of D2R to NR2B: had no preventing effect

## P5: Liu et al. polypeptide of IL3 from D2R containing motif T225-A234 (TKRSSRAFRA; UniProt P14416 225-234, looked up, fragment) [Pep P5]
Binding of D2R to NR2B
  prevention of the binding of D2R to NR2B: successfully prevented the binding of D2R to NR2B

## YIVLRRRRKRVNT [Pep2, variant of KT polypeptide, N-terminal truncated; tested fused to TAT]
[1]
  expression of sensitization behavior (alcohol-induced): significantly inhibited the expression of sensitization behavior
[2]
  activity distance of morphine-CPP mice: significantly reduced the activity distance
[3]
  expression of sensitization behavior (cocaine-induced): significantly inhibited the expression of sensitization behavior

B1: IL3 region of D2R: GST fusion protein containing the IL3 region of D2R (K211-Q373) (protein)
chain: KIYIVLRRRRKRVNTKRSSRAFRAHLRAPLKGNCTHPEDMKLCTVIMKSNGSFPVNRRRVEAARRAQELEMEMLSSTSPPERTRYSPIPPSHHQLTLPDPSHHGLHSTPDSPAKPEKNGHAKDHPKIAKIFEIQTMPNGKTRTSLKTMSRRKLSQQKEKKATQ
modifications: left off: a dimerising Fc or GST; large carriers; small tags and cut ends
NR2B
  precipitation of NR2B by GST fusion protein (pulldown, Western blot): precipitated with affinity
